Experimental data published in patent publication US20240293558A1, “KRAS INHIBITOR CONJUGATES” (Erasca, Inc., priority 2021, published 2024).
Like-named read-outs stand apart in the source and are kept apart here.

Legend:
KRAS (WT) = molecular target: T1, KRAS (WT) (Homo sapiens, UniProt P01116); assay: In-vitro RAS-RAF binding assay (RRB), HTRF/FRET; type: biochemical; details: read-out: Inhibition of RAS-RAF Binding (in-vitro) KRAS (WT) IC50
T1 construct: Biotinylated KRAS protein amino acids 1-169 (produced at Erasca); made in house
Protocol: (§1) Biotinylated KRAS protein amino acids 1-169 (produced at […]) is labeled with streptavidin-terbium (lanthanide cryptate donor fluorophore) in assay buffer (50 mM HEPES, pH 7.5, 100 mM NaCl, 1 mM MgCl2, 1 mM DTT) at a final concentration of 30 nM. In a separate reaction mixture, 30 nM cRAF (RBD) (Abcam, Cambridge MA) is labeled with anti-GST d2 (acceptor fluorophore). Labeling reactions are incubated for 1 hour at room temperature. […] Following the compound incubation, SOS1 catalytic domain (produced at […]) and GTPgS are added to the reaction to initiate nucleotide exchange (60 minutes exchange reaction). Once in the GTP state KRAS will bind to cRAF. No binding will occur if KRAS remains in the GDP state. Compounds may block nucleotide exchange or may create a steric obstruction to cRAF-KRAS interaction by binding to the RAS effector site. […] A portion of this mixture is transferred to a white 384-well plate (20 uL per well in duplicate) and read on an HTRF compatible plate reader (ClarioSTAR). Fluorescent resonance energy transfer (FRET) is measured at equilibrium. FRET signal will be high if KRAS-cRAF binding occurs. FRET signal will be low if KRAS-cRAF binding is inhibited by the test compound. Table 2 represents the average of multiple runs of each compound.

KRAS G12D = KRAS G12D (Homo sapiens, UniProt P01116, G12D); assay: In-vitro RAS-RAF binding assay (RRB), HTRF/FRET; type: biochemical; parameters: Biotinylated KRAS protein amino acids 1-169 (produced at Erasca); made in house; details: read-out: Inhibition of RAS-RAF Binding (in-vitro) KRAS (G12D) IC50
Protocol: as §1

[1] = Table 2, average of multiple runs of each compound

Chain of KRAS G12D (P01116 1-169 isoform P01116-2 G12D): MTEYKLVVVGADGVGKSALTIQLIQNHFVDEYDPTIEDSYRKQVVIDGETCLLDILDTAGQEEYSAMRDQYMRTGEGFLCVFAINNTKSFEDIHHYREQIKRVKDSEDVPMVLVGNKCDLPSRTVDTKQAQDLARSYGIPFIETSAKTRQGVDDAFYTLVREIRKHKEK
T1 sequence (P01116 1-169 isoform P01116-2): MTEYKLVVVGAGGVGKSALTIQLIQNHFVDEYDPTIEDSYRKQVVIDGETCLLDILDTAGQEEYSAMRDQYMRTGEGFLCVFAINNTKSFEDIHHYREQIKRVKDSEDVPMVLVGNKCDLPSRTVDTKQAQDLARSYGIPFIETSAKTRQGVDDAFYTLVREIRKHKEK

Row | SMILES | IC50 (KRAS (WT); Table 1) [nM] | IC50 (KRAS (WT); [1]) [nM] | IC50 (KRAS G12D; Table 1) [nM] | IC50 (KRAS G12D; [1]) [nM]
1 | Cc1cc(N)nc(-c2c(Cl)cc3c(N4CC5CCC(C4)N5)nc(OC[C@@H]4CCCN4CCCOCCC(=O)N[C@H](C(=O)N4C[C@H](O)C[C@H]4C(=O)N[C@@H](C)c4ccc(-c5scnc5C)cc4)C(C)(C)C)nc3c2F)c1C(F)(F)F [Example 1, (2S,4R)-1-[(2S)-2-[3-[3-[(2S)-2-[[7-[6-amino-4-methyl-3-(trifluoromethyl)-2-pyridyl]-6-chloro-4-(3,8-diazabicyclo[3.2.1]octan-3-yl)-8-fluoro-quinazolin-2-yl]oxymethyl]pyrrolidin-1-yl]propoxy]propanoylamino]-3,3-dimethyl-butanoyl]-4-hydroxy-N-[(1S)-1-[4-(4-methylthiazol-5-yl)phenyl]ethyl]pyrrolidine-2-carboxamide] | 799 | 799 | 15 | 15.4
2 | Cc1cc(N)nc(-c2c(Cl)cc3c(N4CC5CCC(C4)N5)nc(OC[C@@H]4CCCN4CCCOCCC(=O)N[C@H](C(=O)N4C[C@H](O)C[C@H]4C(=O)NCc4ccc(-c5scnc5C)cc4)C(C)(C)C)nc3c2F)c1C(F)(F)F [Example 2, (2S,4R)-1-[(2S)-2-[3-[3-[(2S)-2-[[7-[6-amino-4-methyl-3-(trifluoromethyl)-2-pyridyl]-6-chloro-4-(3,8-diazabicyclo[3.2.1]octan-3-yl)-8-fluoro-quinazolin-2-yl]oxymethyl]pyrrolidin-1-yl]propoxy]propanoylamino]-3,3-dimethyl-butanoyl]-4-hydroxy-N-[[4-(4-methylthiazol-5-yl)phenyl]methyl]pyrrolidine-2-carboxamide] | 4250 | 4250 | 17 | 17.2
3 | Cc1cc(N)nc(-c2c(Cl)cc3c(N4CC5CCC(C4)N5)nc(OC[C@@H]4CCCN4CCCOCCCOc4cc(-c5scnc5C)ccc4CNC(=O)[C@@H]4C[C@@H](O)CN4C(=O)[C@H](NC(=O)C4(F)CC4)C(C)(C)C)nc3c2F)c1C(F)(F)F [Example 3, (2S,4R)—N-[[2-[3-[3-[(2S)-2-[[7-[6-amino-4-methyl-3-(trifluoromethyl)-2-pyridyl]-6-chloro-4-(3,8-diazabicyclo[3.2.1]octan-3-yl)-8-fluoro-quinazolin-2-yl]oxymethyl]pyrrolidin-1-yl]propoxy]propoxy]-4-(4-methylthiazol-5-yl)phenyl]methyl]-1-[(2R)-2-[(1-fluorocyclopropanecarbonyl)amino]-3,3-dimethyl-butanoyl]-4-hydroxy-pyrrolidine-2-carboxamide] | > 10000 | > 10000 | 64 | 64.3
4 | Cc1cc(N)nc(-c2c(Cl)cc3c(N4CC5CCC(C4)N5)nc(OC[C@@H]4CCCN4CCCCCCCN4CCC(c5cc(F)cc6c5CN(C5CCC(=O)NC5=O)C6=O)CC4)nc3c2F)c1C(F)(F)F (stereo partly drawn) [Example 5, 3-[4-[1-[7-[(2S)-2-[[7-[6-amino-4-methyl-3-(trifluoromethyl)-2-pyridyl]-6-chloro-4-(3,8-diazabicyclo[3.2.1]octan-3-yl)-8-fluoro-quinazolin-2-yl]oxymethyl]pyrrolidin-1-yl]heptyl]-4-piperidyl]-6-fluoro-1-oxo-isoindolin-2-yl]piperidine-2,6-dione] | 2440 | 4920 | 19 | 18.8
5 | C#Cc1c(F)ccc2cc(O)cc(-c3ncc4c(N5CC6CCC(C5)N6)nc(OC[C@@H]5CCCN5CCCC5CCC(=O)N5[C@H](C(=O)N5C[C@H](O)C[C@H]5C(=O)N[C@@H](C)c5ccc(-c6scnc6C)cc5)C(C)(C)C)nc4c3F)c12 (stereo partly drawn) [Example 10, (2S,4R)-1-((2S)-2-(2-(3-((2S)-2-(((4-(3,8-diazabicyclo[3.2.1]octan-3-yl)-7-(8-ethynyl-7-fluoro-3-hydroxynaphthalen-1-yl)-8-fluoropyrido[4,3-d]pyrimidin-2-yl)oxy)methyl)pyrrolidin-1-yl)propyl)-5-oxopyrrolidin-1-yl)-3,3-dimethylbutanoyl)-4-hydroxy-N—((S)-1-(4-(4-methylthiazol-5-yl)phenyl)ethyl)pyrrolidine-2-carboxamide] | – | 134 | – | 12.7
6 | C[C@H](NC(=O)[C@@H]1C[C@@H](O)CN1C(=O)[C@@H](NC(=O)CCOCCCN1CCC[C@H]1COc1nc(N2CC3CCC(C2)N3)c2cc(C(F)(F)F)c(-c3ccc(F)c4sc(N)c(C#N)c34)cc2n1)C(C)(C)C)c1ccc(-c2c(F)cccc2F)cc1 [Example 21, (2S,4R)-1-((2S)-2-(3-(3-((2S)-2-(((7-(2-amino-3-cyano-7-fluorobenzo [b]thiophen-4-yl)-4-(3,8-diazabicyclo[3.2.1]octan-3-yl)-6-(trifluoromethyl)quinazolin-2-yl)oxy)methyl)pyrrolidin-1-yl)propoxy)propanamido)-3,3-dimethylbutanoyl)-N—((S)-1-(2′,6′-difluoro-[1,1′-biphenyl]-4-yl)ethyl)-4-hydroxypyrrolidine-2-carboxamide] | – | 162 | – | 14.4
7 | Cc1ncsc1-c1ccc([C@H](C)NC(=O)[C@@H]2C[C@@H](O)CN2C(=O)[C@@H](NC(=O)CCCCN2CC[C@H]2COc2nc(N3CC4CCC(C3)N4)c3cc(Cl)c(-c4ccc(F)c5sc(N)c(C#N)c45)c(F)c3n2)C(C)(C)C)cc1 [Example 23, (2S,4R)-1-((2S)-2-(5-((2S)-2-(((7-(2-amino-3-cyano-7-fluorobenzo[b]thiophen-4-yl)-4-(3,8-diazabicyclo[3.2.1]octan-3-yl)-6-chloro-8-fluoroquinazolin-2-yl)oxy)methyl)azetidin-1-yl)pentanamido)-3,3-dimethylbutanoyl)-4-hydroxy-N—((S)-1-(4-(4-methylthiazol-5-yl)phenyl)ethyl)pyrrolidine-2-carboxamide] | – | 65 | – | 12.6
8 | C[C@H](NC(=O)[C@@H]1C[C@@H](O)CN1C(=O)[C@@H](NC(=O)CCOCCCN1CCC[C@H]1COc1nc(N2CC3CCC(C2)N3)c2cc(Cl)c(-c3ccc(F)c4sc(N)c(C#N)c34)c(F)c2n1)C(C)(C)C)c1ccc(-c2ccccc2Cl)cc1 [Example 25, (2S,4R)-1-((2S)-2-(3-(3-((2S)-2-(((7-(2-amino-3-cyano-7-fluorobenzo[b]thiophen-4-yl)-4-(3,8-diazabicyclo[3.2.1]octan-3-yl)-6-chloro-8-fluoroquinazolin-2-yl)oxy)methyl)pyrrolidin-1-yl)propoxy)propanamido)-3,3-dimethylbutanoyl)-N—((S)-1-(2′-chloro-[1,1′-biphenyl]-4-yl)ethyl)-4-hydroxypyrrolidine-2-carboxamide] | – | 107 | – | 12
9 | Cc1ccccc1-c1ccc([C@H](C)NC(=O)[C@@H]2C[C@@H](O)CN2C(=O)[C@@H](NC(=O)CCOCCCN2CCC[C@H]2COc2nc(N3CC4CCC(C3)N4)c3cc(Cl)c(-c4ccc(F)c5sc(N)c(C#N)c45)c(F)c3n2)C(C)(C)C)cc1 [Example 26, (2S,4R)-1-((2S)-2-(3-(3-((2S)-2-(((7-(2-amino-3-cyano-7-fluorobenzo[b]thiophen-4-yl)-4-(3,8-diazabicyclo[3.2.1]octan-3-yl)-6-chloro-8-fluoroquinazolin-2-yl)oxy)methyl)pyrrolidin-1-yl)propoxy)propanamido)-3,3-dimethylbutanoyl)-4-hydroxy-N—((S)-1-(2′-methyl-[1,1′-biphenyl]-4-yl)ethyl)pyrrolidine-2-carboxamide] | – | 91.8 | – | 12
10 | C#Cc1c(F)ccc2cc(O)cc(-c3ncc4c(N5CC6CCC(C5)N6)nc(OC[C@@H]5CCCN5CCCOCCC(=O)N[C@H](C(=O)N5C[C@H](O)C[C@H]5C(=O)N[C@@H](C)c5ccc(-c6c(F)cncc6F)cc5)C(C)(C)C)nc4c3F)c12 [Example 27, (2S,4R)-1-((2S)-2-(3-(3-((2S)-2-(((4-(3,8-diazabicyclo[3.2.1]octan-3-yl)-7-(8-ethynyl-7-fluoro-3-hydroxynaphthalen-1-yl)-8-fluoropyrido[4,3-d]pyrimidin-2-yl)oxy)methyl)pyrrolidin-1-yl)propoxy)propanamido)-3,3-dimethylbutanoyl)-N—((S)-1-(4-(3,5-difluoropyridin-4-yl)phenyl)ethyl)-4-hydroxypyrrolidine-2-carboxamide] | – | 37.9 | – | 10.8
11 | C#Cc1c(F)ccc2cc(O)cc(-c3ncc4c(N5CC6CCC(C5)N6)nc(OC[C@@H]5CCCN5CCCOCCC(=O)N[C@H](C(=O)N5C[C@H](O)C[C@H]5C(=O)N[C@@H](C)c5ccc(-c6ccncc6C#N)cc5)C(C)(C)C)nc4c3F)c12 [Example 28, (2S,4R)-1-((2S)-2-(3-(3-((2S)-2-(((4-(3,8-diazabicyclo[3.2.1]octan-3-yl)-7-(8-ethynyl-7-fluoro-3-hydroxynaphthalen-1-yl)-8-fluoropyrido[4,3-d]pyrimidin-2-yl)oxy)methyl)pyrrolidin-1-yl)propoxy)propanamido)-3,3-dimethylbutanoyl)-N—((S)-1-(4-(3-cyanopyridin-4-yl)phenyl)ethyl)-4-hydroxypyrrolidine-2-carboxamide] | – | 24.2 | – | 7.93
